Measurements taken from patent publication US7015239B2, “Fungicide for plants” (Valent BioSciences, Inc., priority 2003, dated 2006).

Assays:
Botrytis cinerea [1] = test: Contact evaluation (microtiter plate); assay type: cell-based
Experimental: (§1) Compound solution: Contact evaluations were conducted to determine the anti-fungal activity of each compound against Botrytis cinerea, Sclerotinia sclerotiorum, Pythium aphanidermatum, Rhizoctonia solani, Cercospora arachidicola, Mycosphaerella fijiensis, and Monilinia laxa. Five milligrams of each compound were dissolved in 0.5 milliliter of DMSO for a compound stock solution of 1.0% w/v. Compound stock solutions were serial diluted with DMSO to 20, 10, and 2 ppm final well concentration.
(§2) Fungi preparation: Botrytis cinerea spores were taken from 6-week-old cultures grown at 22C on full strength potato dextrous agar (PDA) plates. Sclerotinia sclerotiorum, Pythium aphanidermatum, Rhizoctonia solani, and Monilinia laxa mycelia were taken from 4- to 10-day-old shake flask cultures grown at room temperature on full strength potato dextrous broth (PDB). Cercospora arachidicola mycelia were taken from 10- to 14-day-old shake flask cultures grown at room temperature on a full strength PDB amended with peanut oil. Mycosphaerella fijiensis mycelia were taken from 10- to 14-day-old shake flask cultures grown at room temperature on V8 juice broth. Sclerotinia sclerotiorum, Pythium aphanidermatum, Rhizoctonia solani, Cercospora arachidicola, and Mycosphaerella fijiensis mycelia (0.4 g mycelia) were blended for 45 seconds in 20 mL sterile de-ionized water. Monilinia laxa mycelia (1 g mycelia) was blended for 45 seconds in 30 mL of sterile de-ionized water. Botrytis cinerea spores were diluted with quarter strength PDB to 1×10^5 spores/mL final well concentration. All mycelia were diluted in water (1:5 mycelia:water) before distributing into the wells.
(§3) Microtiter plate preparation: Compound solution (10:L), quarter strength PDB (900:L) and fungi preparation (100:L) were sequentially distributed into 48-well microtiter plates (n=3 replications/compound/rate). A blank consisted of quarter strength PDB and fungi preparation. Commercial fungicide controls (100 ppm diluted with water) consisted of Scala for Botrytis cinerea, Dithane F-45 for Mycosphaerella fijiensis, and Benlate for Sclerotinia sclerotiorum, Pythium aphanidermatum, Rhizoctonia solani, Cercospora arachidicola, and Monilinia laxa. Plates were shaken in a circular rotator at room temperature for 20 minutes, then incubated at 25 C for 24 to 72 hours, depending on the pathogen.
(§4) Fungal control ratings: Fungal growth in wells containing the compounds were compared to the positive control and fungal inhibition was rated as full, partial, or none. Final readings were the average of the three wells (Table 1).

Cercospora arachidicola = test: Contact evaluation (microtiter plate); assay type: cell-based
Experimental: as §1, §2, §3, §4

Monilinia laxa = test: Contact evaluation (microtiter plate); assay type: cell-based
Experimental: as §1, §2, §3, §4

Mycosphaerella fijiensis = test: Contact evaluation (microtiter plate); assay type: cell-based
Experimental: as §1, §2, §3, §4

Pythium aphanidermatum = test: Contact evaluation (microtiter plate); assay type: cell-based
Experimental: as §1, §2, §3, §4

Rhizoctonia solani = test: Contact evaluation (microtiter plate); assay type: cell-based; conditions: Rhizoctinia solani
Experimental: as §1, §2, §3, §4

Sclerotinia sclerotiorum = test: Contact evaluation (microtiter plate); assay type: cell-based; conditions: Sclerotinia sclerotionum
Experimental: as §1, §2, §3, §4

Botrytis cinerea [2] = test: Detached bean leaf bioassay, fungal control; assay type: in vivo; conditions: three days after inoculation, 100 minus percent necrotic area
Experimental: (§5) Detached Bean Leaf Bioassay
(§6) Compound solution: Compound solutions were prepared by diluting compound stock solutions (1.0% w/v compound in DMSO) to 200 ppm with 0.01% w/v Triton X-100.
Spore solution preparation: Botrytis cinerea spores were taken from 6-week-old cultures grown at 22 C on full strength potato dextrous agar (PDA) plates and harvested in 1:16 frozen orange juice concentrate:water. Botrytis cinerea spore solutions were prepared by diluting spore cultures to 5×10^4 spores/mL with 1:16 frozen orange juice concentrate:water.
(§7) Plant material: Middle trifoliate leaves of greenhouse grown Phaseolus vulgaris (Bush bean cv. Blue Lake 274) were excised and placed on a plastic grid above a tray containing moist towels.
Treatment method: One half of the adaxial surface of the leaf was treated with the compound solution (100:L) using a 3 cm Bacti Cell Spreader. A blank consisted of 0.01% w/v Triton X-100. A commercial fungicide control (200 ppm diluted with water) consisted of Scala. […]
Fungal control rating: Three days after inoculation with Botrytis, the percent necrotic area under the inoculation droplet was determined. Since the areas under the blank (0.01% w/v Triton X-100) were 100% infected, fungal control was expressed as 100 minus the percent necrotic area, and thus 0% infected is 100% fungal control (n=3 leaves/compound, 5 inoculation droplets/leaf, Table 2).

[3] = test system: Phaseolus vulgaris (Bush bean cv. Blue Lake 274) leaves; test: Detached bean leaf bioassay, phytotoxicity rating; assay type: in vivo
Experimental: as §5, §6, §7
Treatment method: One half of the adaxial surface of the leaf was treated with the compound solution (100:L) using a 3 cm Bacti Cell Spreader. A blank consisted of 0.01% w/v Triton X-100. A commercial fungicide control (200 ppm diluted with water) consisted of Scala. After the solutions dried, the trays containing the leaves were covered and held one day in a growth chamber (22 C). The adaxial surfaces of the leaves were then inoculated with 5–60:L droplets of Botrytis cinerea spore solution.
Phytotoxicity ratings: Phytotoxicity was rated as 0=no phytotoxicity, l=slight phytotoxicity, 2=moderate phytotoxicity, or 3=excessive phytotoxicity (Table 2).

Structure (SMILES): Cc1ccc(-c2cc(-c3ccc(C)cc3)[n+](-c3ccccc3)c(-c3cccc(C)c3)c2)cc1.[O-][Cl+3]([O-])([O-])O [formula I]
- Control of fungi (full, partial, none) (Botrytis cinerea [1]; fungicide rate 2 ppm): Partial
- Control of fungi (full, partial, none) (Botrytis cinerea [1]; fungicide rate 10 ppm): Full
- Control of fungi (full, partial, none) (Botrytis cinerea [1]; fungicide rate 20 ppm): Full
- Control of fungi (full, partial, none) (Cercospora arachidicola; fungicide rate 2 ppm): None
- Control of fungi (full, partial, none) (Cercospora arachidicola; fungicide rate 10 ppm): Full
- Control of fungi (full, partial, none) (Cercospora arachidicola; fungicide rate 20 ppm): Full
- Control of fungi (full, partial, none) (Monilinia laxa; fungicide rate 2 ppm): Full
- Control of fungi (full, partial, none) (Monilinia laxa; fungicide rate 10 ppm): Full
- Control of fungi (full, partial, none) (Monilinia laxa; fungicide rate 20 ppm): Full
- Control of fungi (full, partial, none) (Mycosphaerella fijiensis; fungicide rate 2 ppm): Full
- Control of fungi (full, partial, none) (Mycosphaerella fijiensis; fungicide rate 10 ppm): Full
- Control of fungi (full, partial, none) (Mycosphaerella fijiensis; fungicide rate 20 ppm): Full
- Control of fungi (full, partial, none) (Pythium aphanidermatum; fungicide rate 2 ppm): Full
- Control of fungi (full, partial, none) (Pythium aphanidermatum; fungicide rate 10 ppm): Full
- Control of fungi (full, partial, none) (Pythium aphanidermatum; fungicide rate 20 ppm): Full
- Control of fungi (full, partial, none) (Rhizoctonia solani; fungicide rate 2 ppm): None
- Control of fungi (full, partial, none) (Rhizoctonia solani; fungicide rate 10 ppm): Full
- Control of fungi (full, partial, none) (Rhizoctonia solani; fungicide rate 20 ppm): Full
- Control of fungi (full, partial, none) (Sclerotinia sclerotiorum; fungicide rate 2 ppm): Full
- Control of fungi (full, partial, none) (Sclerotinia sclerotiorum; fungicide rate 10 ppm): Full
- Control of fungi (full, partial, none) (Sclerotinia sclerotiorum; fungicide rate 20 ppm): Full
- Botrytis cinerea control (200 ppm) (Botrytis cinerea [2]): 93%
- Phytotoxity (200 ppm) [3]: Slight
